# Reference: article PMC12616683, “In Vivo Atlas of Neuroprotective Cyclic Dipeptides Derived from Food Gelatin Using Peptidomics and Feature-Based Molecular Networking” (Journal of Agricultural and Food Chemistry, 2025)
# Square brackets hold non-standard residues; d marks the D form. Peptide text beside a SMILES is read from it. pGlu = O=C1CC[CH](C(=O)O)N1
# Assay: FBMN analysis of short peptides in small intestine contents and serum after oral DHG
# Settings: small intestine contents, 30 min after oral DHG, C57 mice; FBMN feature intensity, peptides smaller than 690 Da
row,Structure (SMILES),"Peptide signal (feature intensity) in the small intestine, 30 min"
1,CC(C)CC(N)C(=O)NC(Cc1ccccc1)C(=O)O (stereo not drawn) [Leu-Phe] (H-Leu-Phe-OH; configuration not given here),6.52E+05
2,CC[C@H](C)[C@H](NC(=O)[C@@H](N)C(C)C)C(=O)N[C@@H](CCCCN)C(=O)O [Val-Ile-Lys] (H-Val-Ile-Lys-OH),0.00E+00
3,O=C1CCC(C(=O)N2CCCC2C(=O)O)N1 (centres unmarked) [PyroGlu-Pro] ([pGlu]-Pro-OH; configuration not given here),0.00E+00
4,CC[C@H](C)[C@H](N)C(=O)NCC(=O)N[C@H](C(=O)O)[C@@H](C)CC [Ile-Gly-Ile] (H-Ile-Gly-Ile-OH),0.00E+00
5,CC(C)C(NC(=O)C(N)Cc1ccccc1)C(=O)O (stereo not drawn) [Phe-Val] (H-Phe-Val-OH; configuration not given here),1.12E+06
6,NC(Cc1ccccc1)C(=O)NC(Cc1ccc(O)cc1)C(=O)O (stereo not drawn) [Phe-Tyr] (H-Phe-Tyr-OH; configuration not given here),4.42E+05
7,CC(C)[C@H](N)C(=O)N[C@@H](Cc1c[nH]c2ccccc12)C(=O)O [Val-Trp] (H-Val-Trp-OH),4.66E+05
8,CCC(C)C(N)C(=O)N1CCCC1C(=O)O (stereo not drawn) [Ile-Pro] (H-Ile-Pro-OH; configuration not given here),1.26E+07
9,CSCC[C@H](NC(=O)CN)C(=O)O [Gly-Met],2.08E+06
10,Cc1cn([C@H]2C[C@H](O)[C@@H](CO)O2)c(=O)[nH]c1=O [Thymidine],6.40E+05
11,CCC(C)C(N)C(=O)NC(C(=O)O)C(C)O (stereo not drawn) [Ile-Thr] (H-Ile-Thr-OH; configuration not given here),6.56E+06

# Same assay, conditions: small intestine contents, 60 min after oral DHG, C57 mice; FBMN feature intensity, peptides smaller than 690 Da
row,Structure (SMILES),"Peptide signal (feature intensity) in the small intestine, 60 min"
1,CC(C)CC(N)C(=O)NC(Cc1ccccc1)C(=O)O (stereo not drawn) [Leu-Phe] (H-Leu-Phe-OH; configuration not given here),9.44E+05
2,CC[C@H](C)[C@H](NC(=O)[C@@H](N)C(C)C)C(=O)N[C@@H](CCCCN)C(=O)O [Val-Ile-Lys] (H-Val-Ile-Lys-OH),2.02E+05
3,O=C1CCC(C(=O)N2CCCC2C(=O)O)N1 (centres unmarked) [PyroGlu-Pro] ([pGlu]-Pro-OH; configuration not given here),1.75E+07
4,CC[C@H](C)[C@H](N)C(=O)NCC(=O)N[C@H](C(=O)O)[C@@H](C)CC [Ile-Gly-Ile] (H-Ile-Gly-Ile-OH),2.90E+06
5,CC(C)C(NC(=O)C(N)Cc1ccccc1)C(=O)O (stereo not drawn) [Phe-Val] (H-Phe-Val-OH; configuration not given here),1.09E+06
6,NC(Cc1ccccc1)C(=O)NC(Cc1ccc(O)cc1)C(=O)O (stereo not drawn) [Phe-Tyr] (H-Phe-Tyr-OH; configuration not given here),1.79E+06
7,CC(C)[C@H](N)C(=O)N[C@@H](Cc1c[nH]c2ccccc12)C(=O)O [Val-Trp] (H-Val-Trp-OH),4.22E+05
8,CCC(C)C(N)C(=O)N1CCCC1C(=O)O (stereo not drawn) [Ile-Pro] (H-Ile-Pro-OH; configuration not given here),6.59E+06
9,CSCC[C@H](NC(=O)CN)C(=O)O [Gly-Met],7.49E+05
10,Cc1cn([C@H]2C[C@H](O)[C@@H](CO)O2)c(=O)[nH]c1=O [Thymidine],1.66E+05
11,CCC(C)C(N)C(=O)NC(C(=O)O)C(C)O (stereo not drawn) [Ile-Thr] (H-Ile-Thr-OH; configuration not given here),7.13E+06

# Same assay, conditions: small intestine contents, 120 min after oral DHG, C57 mice; FBMN feature intensity, peptides smaller than 690 Da
row,Structure (SMILES),"Peptide signal (feature intensity) in the small intestine, 120 min"
1,CC(C)CC(N)C(=O)NC(Cc1ccccc1)C(=O)O (stereo not drawn) [Leu-Phe] (H-Leu-Phe-OH; configuration not given here),8.51E+05
2,CC[C@H](C)[C@H](NC(=O)[C@@H](N)C(C)C)C(=O)N[C@@H](CCCCN)C(=O)O [Val-Ile-Lys] (H-Val-Ile-Lys-OH),0.00E+00
3,O=C1CCC(C(=O)N2CCCC2C(=O)O)N1 (centres unmarked) [PyroGlu-Pro] ([pGlu]-Pro-OH; configuration not given here),0.00E+00
4,CC[C@H](C)[C@H](N)C(=O)NCC(=O)N[C@H](C(=O)O)[C@@H](C)CC [Ile-Gly-Ile] (H-Ile-Gly-Ile-OH),1.40E+06
5,CC(C)C(NC(=O)C(N)Cc1ccccc1)C(=O)O (stereo not drawn) [Phe-Val] (H-Phe-Val-OH; configuration not given here),0.00E+00
6,NC(Cc1ccccc1)C(=O)NC(Cc1ccc(O)cc1)C(=O)O (stereo not drawn) [Phe-Tyr] (H-Phe-Tyr-OH; configuration not given here),8.30E+05
7,CC(C)[C@H](N)C(=O)N[C@@H](Cc1c[nH]c2ccccc12)C(=O)O [Val-Trp] (H-Val-Trp-OH),6.61E+05
8,CCC(C)C(N)C(=O)N1CCCC1C(=O)O (stereo not drawn) [Ile-Pro] (H-Ile-Pro-OH; configuration not given here),1.48E+07
9,CSCC[C@H](NC(=O)CN)C(=O)O [Gly-Met],0.00E+00
10,Cc1cn([C@H]2C[C@H](O)[C@@H](CO)O2)c(=O)[nH]c1=O [Thymidine],0.00E+00
11,CCC(C)C(N)C(=O)NC(C(=O)O)C(C)O (stereo not drawn) [Ile-Thr] (H-Ile-Thr-OH; configuration not given here),0.00E+00

# Same assay, conditions: small intestine contents, 240 min after oral DHG, C57 mice; FBMN feature intensity, peptides smaller than 690 Da
row,Structure (SMILES),"Peptide signal (feature intensity) in the small intestine, 240 min"
1,CC(C)CC(N)C(=O)NC(Cc1ccccc1)C(=O)O (stereo not drawn) [Leu-Phe] (H-Leu-Phe-OH; configuration not given here),0.00E+00
2,CC[C@H](C)[C@H](NC(=O)[C@@H](N)C(C)C)C(=O)N[C@@H](CCCCN)C(=O)O [Val-Ile-Lys] (H-Val-Ile-Lys-OH),4.35E+06
3,O=C1CCC(C(=O)N2CCCC2C(=O)O)N1 (centres unmarked) [PyroGlu-Pro] ([pGlu]-Pro-OH; configuration not given here),1.91E+07
4,CC[C@H](C)[C@H](N)C(=O)NCC(=O)N[C@H](C(=O)O)[C@@H](C)CC [Ile-Gly-Ile] (H-Ile-Gly-Ile-OH),1.45E+06
5,CC(C)C(NC(=O)C(N)Cc1ccccc1)C(=O)O (stereo not drawn) [Phe-Val] (H-Phe-Val-OH; configuration not given here),0.00E+00
6,NC(Cc1ccccc1)C(=O)NC(Cc1ccc(O)cc1)C(=O)O (stereo not drawn) [Phe-Tyr] (H-Phe-Tyr-OH; configuration not given here),0.00E+00
7,CC(C)[C@H](N)C(=O)N[C@@H](Cc1c[nH]c2ccccc12)C(=O)O [Val-Trp] (H-Val-Trp-OH),1.64E+06
8,CCC(C)C(N)C(=O)N1CCCC1C(=O)O (stereo not drawn) [Ile-Pro] (H-Ile-Pro-OH; configuration not given here),2.26E+07
9,CSCC[C@H](NC(=O)CN)C(=O)O [Gly-Met],0.00E+00
10,Cc1cn([C@H]2C[C@H](O)[C@@H](CO)O2)c(=O)[nH]c1=O [Thymidine],0.00E+00
11,CCC(C)C(N)C(=O)NC(C(=O)O)C(C)O (stereo not drawn) [Ile-Thr] (H-Ile-Thr-OH; configuration not given here),0.00E+00
